Series [1] deals with sub-chronic PCP-induced deficits in recognition memory in rats. The series can be described thus: Sub-chronic PCP-induced deficit in novel object recognition (NOR) paradigm. To be noted: for Acquisition total exploration time / Retention total exploration time: mean ± s.e.m.
The subject of series [2] is scopolamine-induced impairment in cognition. Particulars: normal healthy humans, donepezil 10 mg; cited from earlier work.
In series [3] the test system is scopolamine-induced cognitive deficit in mice. Kind of series: Scopolamine-induced cognitive deficit, T-maze spontaneous alternation.
Experimental: 60 male CD-1 mice (Janvier; Le Genest St Isle—France) were used for the study, with 10 animals per group.
Animals in the API groups were pre-treated (p.o.) once a day for 30 days, the last treatment was given 1 h before the T-maze test.
Compound of Formula I or its vehicle was administered at 5 ml/kg using p.o. route. The vehicle was 5% DMSO/0.5% methylcellulose in water. Fresh compound solution was prepared daily as following: the required amount of compound will be dissolved in 100% DMSO and then the required amount of 0.5% methylcellulose in water was added.
On the day of the T-maze, the last treatment was given 1 h before the task.
Donepezil (donepezil hydrochloride) was prepared in saline at a concentration of 0.03 mg/ml and was given p.o. at a dosage volume of 10 ml/kg 1 h before the T-maze trial start.
Scopolamine was prepared in saline (vehicle) at a concentration of 0.089 mg/ml (free base) and was given i.p. at a dosage volume of 10 ml/kg 30 min before the T-maze trial start.
The T-maze consists of 2 choice arms and 1 start arm mounted to a square centre. Sliding doors are provided to close specific arms during the force choice alternation task.
The experimental protocol consists of one single session, which starts with 1 “forced-choice” trial, followed by 14 “free-choice” trials. In the first “forced-choice” trial, the animal was confined for 5 s in the start arm and then was released while either the left or right goal arm was blocked by closing the sliding door. The animal then negotiated the maze, and eventually entered the open goal arm, and returned to the start position.
Immediately after the return of the animal to the start position, the left or right goal door was opened, and the animal was allowed to choose freely between the left and right goal arm (“free choice trials).
The animal was considered to have entered an arm when it placed its four paws in the arm.
A session was terminated, and the animal was removed from the maze as soon as 14 free-choice trials had been performed or 10 min have elapsed, whatever event occurred first.
The percentage of spontaneous alternations were calculated as number of spontaneous alternations divided by 14 possible free choice.
Statistical analysis was assessed using Anova followed by Fischer's Protected Least Significant Difference for pairwise comparison. p level <0.05 was deemed significant.
The test system of another series is 5XFAD mice. Particulars: repeated administration, WO2020/033604; cited from earlier work.
The subject of series [4] is animal model of Alzheimer's disease. To be noted: low dose; Chen et al., 2021; cited from earlier work.
Series [5] deals with tropomyosin receptor kinase B (TrkB) (Homo sapiens, UniProt Q16620). To be noted: known from background; cited from earlier work.
Sequence of tropomyosin receptor kinase B (TrkB) (Q16620 32-822, species assumed): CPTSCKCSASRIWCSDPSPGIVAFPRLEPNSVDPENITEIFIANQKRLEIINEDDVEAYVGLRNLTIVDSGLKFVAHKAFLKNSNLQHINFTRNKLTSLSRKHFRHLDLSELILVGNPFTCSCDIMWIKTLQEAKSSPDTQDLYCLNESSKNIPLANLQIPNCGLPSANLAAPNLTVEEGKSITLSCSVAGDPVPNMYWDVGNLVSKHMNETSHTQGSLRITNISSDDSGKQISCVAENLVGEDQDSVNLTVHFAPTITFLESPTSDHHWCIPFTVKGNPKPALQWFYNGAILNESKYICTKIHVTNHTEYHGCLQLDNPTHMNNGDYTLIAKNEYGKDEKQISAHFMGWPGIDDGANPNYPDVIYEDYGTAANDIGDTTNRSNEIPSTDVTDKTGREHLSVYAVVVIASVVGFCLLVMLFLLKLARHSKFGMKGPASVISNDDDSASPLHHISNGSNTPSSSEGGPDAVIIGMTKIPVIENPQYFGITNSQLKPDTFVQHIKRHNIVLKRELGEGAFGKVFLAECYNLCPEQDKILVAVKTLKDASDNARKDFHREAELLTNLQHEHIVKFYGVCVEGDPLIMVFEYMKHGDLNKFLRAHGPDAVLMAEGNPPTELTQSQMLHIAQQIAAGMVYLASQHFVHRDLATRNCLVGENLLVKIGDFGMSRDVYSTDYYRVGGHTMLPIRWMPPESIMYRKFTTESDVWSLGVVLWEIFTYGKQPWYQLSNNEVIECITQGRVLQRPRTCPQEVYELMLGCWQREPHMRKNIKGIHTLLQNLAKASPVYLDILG
[6] abbreviates: 20-day phase (day 20), scPCP rats, acute risperidone 0.1 mg/kg i.p. 60 min before test.
Where [7] appears, read: acute phase (day 1), scPCP rats, risperidone 0.1 mg/kg i.p. 60 min before test.
Where [8] appears, read: 20-day once-daily treatment, scPCP rats, 10 mg/kg p.o.
The mark [9] stands for this setting: 20-day once-daily treatment, scPCP rats, 30 mg/kg p.o.
The mark [10] stands for this setting: acute treatment, scPCP rats, 10 mg/kg p.o. 120 min before test.
[11] abbreviates: acute treatment, scPCP rats, 30 mg/kg p.o. 120 min before test.

Structures can show the parent of a compound that is named as a salt.

As for `Cc1nc2n(c(=O)c1CCN1CCC(c3noc4cc(F)ccc34)CC1)CCCC2` [Risperidone, risperidone, reference compound], in series [1] (setting [6]), the “Acquisition total exploration time” value is 25.5 ± 3.4 s and the “Retention total exploration time” value is 17.8 ± 1.1 s. Also, in series [1] (setting [7]), the “Acquisition total exploration time” value came out at 22.81 ± 4.03 s and the “Retention total exploration time” value is 23.10 ± 2.92 s. Also, in series [1] (acute phase, risperidone 0.1 mg/kg i.p., versus scPCP without treatment and test compound (FIG. 4)), the “discrimination index (DI)” value is recorded as “higher”. Also, the “rescue of deficits induced by scPCP in NOR” value in series [1] (risperidone dosed acutely) is “able to rescue the deficits induced by scPCP”.

For the molecule `COc1cc2c(cc1OC)C(=O)C(CC1CCN(Cc3ccccc3)CC1)C2` (stereo not drawn) [Donepezil, donepezil hydrochloride, reference compound], the “scopolamine-induced impairment in cognition (power of attention, continuity of attention, quality of working memory, speed of memory)” value in series [2] was “significantly attenuated”. The “Spontaneous alternation (%)” value in series [3] (Scopolamine 0.89 mg/kg i.p., Donepezil 0.3 mg/kg p.o. 1 h before T-maze, hydrochloride) is listed as 65.0%; in series [3] (Scopolamine 0.89 mg/kg i.p., Donepezil 0.3 mg/kg p.o. 1 h before T-maze, listed as donepezil, hydrochloride), 65%. Moreover, the “effect on scopolamine-induced decline in cognitive function” value in series [3] (donepezil 0.3 mg/kg, statistically significant) was “ameliorated”.

For `N#Cc1ccc(-c2cc(=O)c3ccc4[nH]c(C(F)(F)F)nc4c3o2)cc1` [compound of Formula I, 4-(6-oxo-2-(trifluoromethyl)-3,6-dihydrochromeno [7,8-d]imidazol-8-yl)benzonitrile], in the series on 5XFAD mice, the synaptic loss entry was “able to prevent synaptic loss”. The “dose effect in Alzheimer's disease animal model” value in series [4] is listed as “saturation effect”. Moreover, the “spontaneous alternations in comparison to vehicle in scopolamine-treated mice” value in series [3] (30 days treatment prior to scopolamine, statistically significant) is recorded as “increased percentage of spontaneous alternations”. In addition, the “Spontaneous alternation (%)” value in series [3] (Saline (healthy mice), Compound of Formula I high dose 10 mg/kg p.o. once a day for 30 days, 10 mg/kg) is on record as 64%; in series [3] (Saline (healthy mice), Compound of Formula I high dose 10 mg/kg p.o. once a day for 30 days, listed as Compound of Formula I, 10 mg/kg), 64.3%; in series [3] (Scopolamine, Compound of Formula I high dose 10 mg/kg p.o. once a day for 30 days, 10 mg/kg) it was 56%; in series [3] (Scopolamine, Compound of Formula I high dose 10 mg/kg p.o. once a day for 30 days, listed as Compound of Formula I, 10 mg/kg), 55.7%; in series [3] (Scopolamine, Compound of Formula I low dose 5 mg/kg p.o. once a day for 30 days, 5 mg/kg), 56%; in series [3] (Scopolamine, Compound of Formula I low dose 5 mg/kg p.o. once a day for 30 days, listed as Compound of Formula I, 5 mg/kg), 55.7%. In series [3] (healthy mice, 10 mg/kg, 30 days), the “effect on cognition in healthy animals” value is given as “did not impair cognition in healthy animals”. Also, the “Acquisition total exploration time” value in series [1] (setting [8]) came out at 24.6 ± 3.4 s; in series [1] (setting [9]) it was 26.1 ± 3.1 s; in series [1] (setting [10]), 21.75 ± 2.46 s; in series [1] (setting [11]) it was 25.49 ± 3.04 s. Further, the “Retention total exploration time” value is listed as 19.0 ± 1.4 s in series [1] (setting [8]), 20.8 ± 1.2 s in series [1] (setting [9]), 22.55 ± 1.60 s in series [1] (setting [10]) and 26.18 ± 2.11 s in series [1] (setting [11]). In addition, the “discrimination index (DI)” value in series [1] (20-day treatment, 30 mg/kg, compared to animals without treatment, P<0.015 (FIG. 8)) is “statistically significant increase”. Further, the “amount of time spent exploring the familiar and novel object in the retention trial” value in series [1] (20-day treatment, scPCP rats, 10 & 30 mg/kg p.o., P<0.01 (FIG. 7)) is on record as “dose dependent statistically significant effect”. Moreover, the “amount of time exploring the novel or familiar object in the retention trial” value in series [1] (acute treatment, scPCP rats, 10 & 30 mg/kg p.o. (FIG. 3)) was “not shown to have a difference”. Besides, in series [1] (dosing for a 20-day period), the “rescue of deficits induced by scPCP in NOR” value is “able to rescue the scPCP in a dose dependent manner”.

For the molecule `O=c1cc(-c2ccccc2)oc2c(O)c(O)ccc12` [tropoflavin, 7,8-dihydroxyflavone], the TrkB activity result in series [5] was “potent and selective agonist”.

The values are drawn from patent US20260191827A1, “COMPOUNDS FOR USE IN THE TREATMENT OF DISEASES AND CONDITIONS ASSOCIATED WITH NEURODEGENERATIVE DYSFUNCTION” (OnTrack Therapeutics Limited, priority 2022, published 2026).
